The values that follow come from patent US10626112B2, “Heterocyclic sulfonamide derivative and medicine comprising same” (EA PHARMA CO., LTD., priority 2014, dated 2020).

Sequence of human TRPA1 (O75762 whole entry): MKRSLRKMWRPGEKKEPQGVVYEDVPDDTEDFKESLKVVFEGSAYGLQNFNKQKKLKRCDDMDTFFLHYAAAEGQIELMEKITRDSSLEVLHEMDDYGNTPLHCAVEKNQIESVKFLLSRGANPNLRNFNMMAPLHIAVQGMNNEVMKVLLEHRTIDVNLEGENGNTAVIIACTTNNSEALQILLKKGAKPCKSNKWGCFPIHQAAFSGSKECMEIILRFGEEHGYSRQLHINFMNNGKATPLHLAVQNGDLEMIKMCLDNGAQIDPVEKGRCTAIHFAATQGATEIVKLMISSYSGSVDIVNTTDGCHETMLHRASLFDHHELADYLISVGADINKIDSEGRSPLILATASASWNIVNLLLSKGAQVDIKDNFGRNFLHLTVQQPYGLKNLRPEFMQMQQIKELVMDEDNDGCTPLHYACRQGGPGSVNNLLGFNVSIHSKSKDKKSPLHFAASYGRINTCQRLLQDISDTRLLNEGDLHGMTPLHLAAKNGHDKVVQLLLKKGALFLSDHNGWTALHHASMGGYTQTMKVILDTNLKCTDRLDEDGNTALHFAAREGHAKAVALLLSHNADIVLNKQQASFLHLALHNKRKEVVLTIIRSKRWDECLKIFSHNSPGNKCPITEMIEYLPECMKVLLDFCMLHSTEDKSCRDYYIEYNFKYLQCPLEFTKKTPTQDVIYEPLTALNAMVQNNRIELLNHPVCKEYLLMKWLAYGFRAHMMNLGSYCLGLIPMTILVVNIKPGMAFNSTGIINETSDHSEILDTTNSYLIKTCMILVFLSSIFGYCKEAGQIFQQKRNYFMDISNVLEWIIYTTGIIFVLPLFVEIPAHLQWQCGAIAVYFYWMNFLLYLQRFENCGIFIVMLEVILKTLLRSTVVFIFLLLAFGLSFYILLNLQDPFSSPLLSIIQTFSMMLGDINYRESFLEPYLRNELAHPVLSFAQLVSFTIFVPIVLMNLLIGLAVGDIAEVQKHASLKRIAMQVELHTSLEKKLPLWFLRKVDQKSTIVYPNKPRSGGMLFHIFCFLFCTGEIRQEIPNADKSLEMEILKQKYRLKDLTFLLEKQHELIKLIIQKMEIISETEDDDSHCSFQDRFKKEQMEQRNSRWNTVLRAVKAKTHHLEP

This experiment has as its target human TRPA1 (Homo sapiens (Human), UniProt O75762). Briefly: Measurement of TRPA1 antagonist activity (1): intracellular calcium increase. The class given is cell-based. The conditions noted are these: 293T cells transfected with human TRPA1 expression plasmid; allylisothiocyanate 20 μM stimulation; intracellular calcium fluorescence; read-out: hTRPA1 IC50. The procedure, abridged: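 HEK293T cells transiently transfected with full-length human TRPA1, loaded with Calcium4 dye in HBSS/20 mM HEPES pH 7.2. Test compound preincubated 10 min, then allylisothiocyanate added at 20 μM final and fluorescence change followed for 5 min. IC50 from sigmoid fit of percent inhibition relative to agonist and buffer controls.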
A general note: Calcium flux is commonly read through the fluorescence of an indicator in the cells.
The term IC50 denotes the concentration needed to halve the response being measured. In the case of `O=C(NCc1cccc(-c2ccc(C(F)(F)F)cn2)c1)[C@@H]1CCCN1S(=O)(=O)c1cc2cc(F)ccc2o1` [Example 89, (2S)-1-(5-fluorobenzofuran-2-yl)sulfonyl-N-[[3-[5-(trifluoromethyl)-2-pyridyl]phenyl]methyl]pyrrolidine-2-carboxamide], the IC50 is 0.38 nM.

Take `O=C(NCc1cc(-c2ccc(C(F)(F)F)cc2)ncn1)[C@@H]1CCCN1S(=O)(=O)c1cc2cc(F)ccc2o1` [Example 90, (2S)-1-(5-fluorobenzofuran-2-yl)sulfonyl-N-[[6-[4-(trifluoromethyl)phenyl]pyrimidin-4-yl]methyl]pyrrolidine-2-carboxamide]: the IC50 came out at 0.84 nM.

For `O=C(NCc1cccc(-c2ccc(C(F)(F)F)nc2)c1)[C@@H]1CCCN1S(=O)(=O)c1cc2c(F)cccc2o1` [Example 92, (2S)-1-(4-fluorobenzofuran-2-yl)sulfonyl-N-[[3-[6-(trifluoromethyl)-3-pyridyl]phenyl]methyl]pyrrolidine-2-carboxamide], the IC50 amounted to 2.2 nM.

On to `O=C(NCc1cccc(-c2ccc(C(F)(F)F)nc2)c1)[C@@H]1[C@@H](O)CCN1S(=O)(=O)c1cc2cc(F)ccc2o1` [Example 93, (2S,3S)-1-(5-fluorobenzofuran-2-yl)sulfonyl-3-hydroxy-N-[[3-[6-(trifluoromethyl)-3-pyridyl]phenyl]methyl]pyrrolidine-2-carboxamide], for which the IC50 was found to be 23 nM.

`O=C(NCc1cccc(-c2ccc(C(F)(F)F)cn2)c1)[C@@H]1[C@@H](O)CCN1S(=O)(=O)c1cc2cc(F)ccc2o1` [Example 94, (2S,3S)-1-(5-fluorobenzofuran-2-yl)sulfonyl-3-hydroxy-N-[[3-[5-(trifluoromethyl)-2-pyridyl]phenyl]methyl]pyrrolidine-2-carboxamide]: the IC50 came to 11 nM.

On to `O=C(NCc1ccnc(-c2ccc(C(F)(F)F)cc2)c1)[C@@H]1[C@@H](O)CCN1S(=O)(=O)c1cc2cc(F)ccc2o1` [Example 95, (2S,3S)-1-(5-fluorobenzofuran-2-yl)sulfonyl-3-hydroxy-N-[[2-[4-(trifluoromethyl)phenyl]-4-pyridyl]methyl]pyrrolidine-2-carboxamide], for which the IC50 came out at 5.4 nM.

For the compound `CN(C)c1cc(-c2cccc(CNC(=O)[C@@H]3CCCN3S(=O)(=O)c3cc4cc(F)ccc4o3)c2)ccn1` [Example 96, (2S)-N-[[3-[2-(dimethylamino)-4-pyridyl]phenyl]methyl]-1-(5-fluorobenzofuran-2-yl)sulfonyl-pyrrolidine-2-carboxamide], the IC50 turned out to be 250 nM.

Consider `O=C(NCc1ccnc(-c2ccc(C(F)(F)F)cc2)c1)[C@@H]1CCCN1S(=O)(=O)c1cc2c(F)cccc2o1` [Example 97, (2S)-1-(4-fluorobenzofuran-2-yl)sulfonyl-N-[[2-[4-(trifluoromethyl)phenyl]-4-pyridyl]methyl]pyrrolidine-2-carboxamide], for which the IC50 is 4 nM.

`O=C(NCc1ccnc(-c2ccc(C(F)(F)F)cc2)c1)[C@@H]1C=CCN1S(=O)(=O)c1cc2cc(F)ccc2o1` [Example 98, (2S)-1-(5-fluorobenzofuran-2-yl)sulfonyl-N-[[2-[4-(trifluoromethyl)phenyl]-4-pyridyl]methyl]-2,5-dihydropyrrole-2-carboxamide]: the IC50 is 0.76 nM.

Take `O=C(NCc1ccnc(-c2ccc(C(F)(F)F)cc2)c1)[C@@H]1CC(F)(F)CN1S(=O)(=O)c1cc2cc(F)ccc2o1` [Example 99, (2S)-4,4-difluoro-1-(5-fluorobenzofuran-2-yl)sulfonyl-N-[[2-[4-(trifluoromethyl)phenyl]-4-pyridyl]methyl]pyrrolidine-2-carboxamide]: the IC50 is 13 nM.

For the compound `O=C(NCc1cccc(-c2ccc(C(F)(F)F)nc2)c1)[C@@H]1CCN1S(=O)(=O)c1cc2cc(F)ccc2o1` [Example 100, (2S)-1-(5-fluorobenzofuran-2-yl)sulfonyl-N-[[3-[6-(trifluoromethyl)-3-pyridyl]phenyl]methyl]azetidine-2-carboxamide], the IC50 stood at 1.6 nM.

As to `C[C@H](NS(=O)(=O)c1cc2ccccc2o1)C(=O)NCc1cccc(-c2ccc(C(F)(F)F)nc2)c1` [Example 101, (2S)-2-(benzofuran-2-ylsulfonylamino)-N-[[3-[6-(trifluoromethyl)-3-pyridyl]phenyl]methyl]propanamide], the half-maximal inhibitory concentration (IC50) turned out to be 27 nM.

Consider `C[C@H](NS(=O)(=O)c1cc2ccccc2o1)C(=O)NCc1cccc(-c2ccc(C(F)(F)F)cn2)c1` [Example 102, (2S)-2-(benzofuran-2-ylsulfonylamino)-N-[[3-[5-(trifluoromethyl)-2-pyridyl]phenyl]methyl]propanamide], for which the IC50 came out at 28 nM.

As for `C[C@H](NS(=O)(=O)c1cc2ccccc2o1)C(=O)NCc1ccnc(-c2ccc(C(F)(F)F)cc2)c1` [Example 103, (2S)-2-(benzofuran-2-ylsulfonylamino)-N-[[2-[4-(trifluoromethyl)phenyl]-4-pyridyl]methyl]propanamide], the IC50 was found to be 56 nM.

In the case of `C[C@H](NS(=O)(=O)c1cc2ccccc2o1)C(=O)NCc1cc(-c2ccc(C(F)(F)F)cc2)ncn1` [Example 104, (2S)-2-(benzofuran-2-ylsulfonylamino)-N-[[6-[4-(trifluoromethyl)phenyl]pyrimidin-4-yl]methyl]propanamide], the IC50 came to 14 nM.

For `C[C@H](NS(=O)(=O)c1cc2ccccc2o1)C(=O)NCc1cc(-c2ccc(C(F)(F)F)nc2)ccn1` [Example 105, (2S)-2-(benzofuran-2-ylsulfonylamino)-N-[[4-[6-(trifluoromethyl)-3-pyridyl]-2-pyridyl]methyl]propanamide], the IC50 was determined as 68 nM.

Take `C[C@H](NS(=O)(=O)c1cc2cc(F)ccc2o1)C(=O)NCc1cccc(-c2ccc(C(F)(F)F)nc2)c1` [Example 106, (2S)-2-[(5-fluorobenzofuran-2-yl)sulfonylamino]-N-[[3-[6-(trifluoromethyl)-3-pyridyl]phenyl]methyl]propanamide]: the IC50 came out at 10 nM.

With `C[C@H](NS(=O)(=O)c1cc2cc(F)ccc2o1)C(=O)NCc1cccc(-c2ccc(C(F)(F)F)cn2)c1` [Example 107, (2S)-2-[(5-fluorobenzofuran-2-yl)sulfonylamino]-N-[[3-[5-(trifluoromethyl)-2-pyridyl]phenyl]methyl]propanamide], the IC50 was determined as 6.9 nM.

As to `C[C@H](NS(=O)(=O)c1cc2cc(F)ccc2o1)C(=O)NCc1ccnc(-c2ccc(C(F)(F)F)cc2)c1` [Example 108, (2S)-2-[(5-fluorobenzofuran-2-yl)sulfonylamino]-N-[[2-[4-(trifluoromethyl)phenyl]-4-pyridyl]methyl]propanamide], the IC50 turned out to be 13 nM.

Consider `C[C@H](NS(=O)(=O)c1cc2cc(F)ccc2o1)C(=O)NCc1cc(-c2ccc(C(F)(F)F)cc2)ncn1` [Example 109, (2S)-2-[(5-fluorobenzofuran-2-yl)sulfonylamino]-N-[[6-[4-(trifluoromethyl)phenyl]pyrimidin-4-yl]methyl]propanamide], for which the IC50 was 4.7 nM.

For `C[C@H](NS(=O)(=O)c1cc2cc(F)ccc2o1)C(=O)NCc1cc(-c2ccc(C(F)(F)F)nc2)ccn1` [Example 110, (2S)-2-[(5-fluorobenzofuran-2-yl)sulfonylamino]-N-[[4-[6-(trifluoromethyl)-3-pyridyl]-2-pyridyl]methyl]propanamide], the IC50 was found to be 17 nM.

On to `Cc1ccc2oc(S(=O)(=O)N3CCC[C@H]3C(=O)NCc3cccc(-c4ccc(C(F)(F)F)nc4)c3)cc2c1` [Example 111, (2S)-1-(5-methylbenzofuran-2-yl)sulfonyl-N-[[3-[6-(trifluoromethyl)-3-pyridyl]phenyl]methyl]pyrrolidine-2-carboxamide], for which the IC50 is 130 nM.

For the compound `O=C(NCc1ccnc(-c2ccccc2)c1)[C@@H]1CCCN1S(=O)(=O)c1cc2ccccc2o1` [Example 112, (2S)-1-(benzofuran-2-ylsulfonyl)-N-[(2-phenyl-4-pyridyl)methyl]pyrrolidine-2-carboxamide], the IC50 is 270 nM.

On to `O=C(NCc1ccnc(-c2cccc(F)c2)c1)[C@@H]1CCCN1S(=O)(=O)c1cc2ccccc2o1` [Example 113, (2S)-1-(benzofuran-2-ylsulfonyl)-N-[[2-(3-fluorophenyl)-4-pyridyl]methyl]pyrrolidine-2-carboxamide], for which the IC50 is 120 nM.

Consider `O=C(NCc1ccnc(-c2ccc(F)cc2)c1)[C@@H]1CCCN1S(=O)(=O)c1cc2ccccc2o1` [Example 114, (2S)-1-(benzofuran-2-ylsulfonyl)-N-[[2-(4-fluorophenyl)-4-pyridyl]methyl]pyrrolidine-2-carboxamide], for which the IC50 is 32 nM.

For the compound `O=C(NCc1ccnc(-c2ccc(C(F)(F)F)cc2)c1)[C@@H]1CCCN1S(=O)(=O)c1cc2ccccc2o1` [Example 115, (2S)-1-(benzofuran-2-ylsulfonyl)-N-[[2-[4-(trifluoromethyl)phenyl]-4-pyridyl]methyl]pyrrolidine-2-carboxamide], the IC50 turned out to be 2.4 nM.

Take `O=C(NCc1ccnc(-c2ccc(OC(F)(F)F)cc2)c1)[C@@H]1CCCN1S(=O)(=O)c1cc2ccccc2o1` [Example 116, (2S)-1-(benzofuran-2-ylsulfonyl)-N-[[2-[4-(trifluoromethoxy)phenyl]-4-pyridyl]methyl]pyrrolidine-2-carboxamide]: the IC50 turned out to be 2.9 nM.

`N#Cc1ccc(-c2cc(CNC(=O)[C@@H]3CCCN3S(=O)(=O)c3cc4ccccc4o3)ccn2)cc1` [Example 117, (2S)-1-(benzofuran-2-ylsulfonyl)-N-[[2-(4-cyanophenyl)-4-pyridyl]methyl]pyrrolidine-2-carboxamide]: the IC50 is 14 nM.

Turning to `N#Cc1cccc(-c2cc(CNC(=O)[C@@H]3CCCN3S(=O)(=O)c3cc4ccccc4o3)ccn2)c1` [Example 118, (2S)-1-(benzofuran-2-ylsulfonyl)-N-[[2-(3-cyanophenyl)-4-pyridyl]methyl]pyrrolidine-2-carboxamide], the IC50 was 260 nM.
